This note sets out measurements from patent publication US20230226160A1, “COMPOSITIONS AND METHODS FOR TREATING BACTERIAL INFECTIONS” (MUCPHARM PTY LTD, priority 2020, published 2023).

What all share (format): cell-based
In assay [1] the test system is Staphylococcus aureus ATCC 6538 biofilms. Description: Anti-biofilm activity on preformed 24-hour/48-hour Staphylococcus aureus ATCC 6538 biofilms, 4-hour treatment, crystal violet, 590 nm. The note with it: 24-hour biofilm. The procedure:
The plates were then incubated at 37° C. for 4 hrs. After treatment, the cells were fixed with 99% methanol and stained with 1% crystal violet. The stained biofilm was dissolved with 33% acetic acid and the absorbance was read at 590 nm. The results were analyzed using Prism GraphPad software.

In assay [2] the test system is Pseudomonas aeruginosa ATCC 31461 biofilms. Description: Anti-biofilm activity on 48-hour Pseudomonas aeruginosa ATCC 31461 biofilms, 4-hour treatment, crystal violet. The following applies: FIG. 6. The method, then: Each plate was then incubated at 37° C. for 24 hrs and, afterwards, the plates were treated with various concentrations of acetylcysteine, bromelain and/or ampicillin. The plate was then incubated at 37° C. for 4 hrs.
(§1) After treatment, the cells were fixed with 99% methanol and stained with 1% crystal violet. The stained biofilm was dissolved with 33% acetic acid and the absorbance was read at 590 nm. The results were analyzed using Prism GraphPad software.

The test system of assay [3] is Pseudomonas aeruginosa PA01 398 biofilms. The experiment in a line: Anti-biofilm activity on 48-hour Pseudomonas aeruginosa PA01 398 biofilms, 4-hour combined or staged treatment, crystal violet. The note with it: NAC 25 and 50 mg/ml single agent, FIG. 9. The method, then: Each plate was then incubated at 37° C. for 24 hrs and, afterwards, the plates were treated with various concentrations of acetylcysteine, bromelain, gentamicin, ampicillin and combinations thereof. The plate was then incubated at 37° C. for 4 hrs.
as §1
Each plate was then incubated at 37° C. for 24 hrs and, afterwards, the plates were treated with various concentrations of acetylcysteine, bromelain and either gentamicin or ampicillin. The plate was then incubated at 37° C. for 4 hrs. After treatment, the cells were fixed with 99% methanol and stained with 1% crystal violet. The stained biofilm was dissolved with 33% acetic acid and the absorbance was read at 590 nm. The results were analyzed using Prism GraphPad software.
In the first series of experiments, the results of which are shown in FIG. 12, 48-hour Pseudomonas aeruginosa PA01 398 biofilms were treated for 4-hours with the compositions shown in the table including ampicillin (50-200 μg/mL), bromelain (25 μg/mL) and acetylcysteine (10 mg/mL) in 5% glucose. […]

For a further assay, the system named is biofilm. Description: Inventor's summary statements on biofilm experiments. The following applies: at therapeutically appropriate dosages.

“Also recorded” adds a separate entry of the source.

Consider `CC(=O)N[C@@H](CS)C(=O)O` [acetylcysteine], for which the “effect on biofilm eradication” value in assay [1] (acetylcysteine 20 mg/mL single treatment, 4-hour, FIG. 3) was “no effect on biofilm eradication”. In addition, the effectiveness on biofilm result in assay [2] (acetylcysteine 25 mg/mL single agent) is reported as “not effective”; in assay [2] (acetylcysteine 50 mg/ml single agent), “moderately effective”. In addition, the “effect on biofilm as single agent” value in assay [3] is “antagonistic”. In addition, in the assay with biofilm, the “effect of acetylcysteine alone on biofilm” value is reported as “no appreciable effect; also recorded: relatively ineffective”.

For gentamicin, the biofilm eradication in assay [1] (gentamicin 12 μg/ml single agent, 4-hour, FIG. 5) is 2%; in assay [1] (gentamicin 35 μg/ml single agent, most effective gentamicin treatment) it was “approximately 60%”. Besides, in assay [1] (gentamicin 16 μg/ml single agent, compared to the concentration in combination, FIG. 5), the “effectiveness of single agent (eradication)” value is 5%.
